Here are results for 5 compounds from ChEMBL document CHEMBL1201862, “PubChem BioAssay data set” (2004).

Test systems include COLO 205; DMS-114; DMS-273; HCC 2998; HOP-18; HOP-92; KM-20L2; Malme-3M; OVCAR-5; SF-268; SK-OV-3; SNB-19; SNB-78; SW-620; UO-31; XF498.
Test in all cases: NCI-60 cell line screen, 48 h

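Compound exposure: 48 hours, 5 concentrations, 96-well plates. At the GI50, growth is halved.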 Active and inactive are the calls of the source. No stated cut-off is given here; in the data, active = GI50 up to about 1.1 µM and inactive = higher. Non-standard residues stand in square brackets, D forms with d. Residues, ends and D or L forms follow the SMILES beside them. ξ: configuration not given here. Pen = CC(C)(S)[C@H](N)C(=O)O; ξL = CC(C)CC(N)C(=O)O

Regarding `C[n+]1[se]c2ccccc2c1Cl`, the GI50 in the assay with COLO 205 is > 43.9 µM (inactive); in the assay with DMS-114 it was 35.3 µM (inactive); in the assay on DMS-273 it was 20 µM (inactive); in the assay with HCC 2998, > 47.8 µM (inactive); in the assay with HOP-18, 20.7 µM (inactive); in the assay on HOP-92, 7.31 µM (inactive). The GI50 in the assay with KM-20L2 is > 51.1 µM (inactive); with Malme-3M it was 23.3 µM (inactive); with OVCAR-5 it was > 52.1 µM (inactive); in the assay on SF-268 it was 20.9 µM (inactive); in the assay on SK-OV-3 it was > 89.3 µM (inactive); with SNB-19, > 67.8 µM (inactive). Moreover, the GI50 in the assay on SNB-78 is 27.8 µM (inactive); in the assay with SW-620, 20 µM (inactive); with UO-31, 24.8 µM (inactive); in the assay on XF498, 37.2 µM (inactive).

Turning to `C=CC1(c2ccccc2Cl)N/C(=C/OCC)CO1` (stereo not given), the GI50 is 88.3 µM (inactive) in the assay with COLO 205; > 100 µM (inactive) in the assay with DMS-114; > 100 µM (inactive) in the assay with DMS-273; > 100 µM (inactive) in the assay on HCC 2998; > 100 µM (inactive) in the assay with HOP-18; > 100 µM (inactive) in the assay on HOP-92. Also, the GI50 with KM-20L2, in the assay with Malme-3M, with OVCAR-5, with SF-268, in the assay on SK-OV-3 and in the assay with SNB-19 was > 100 µM (inactive) throughout. Also, the GI50 was > 100 µM (inactive) with SNB-78, 13.2 µM (inactive) in the assay with SW-620, > 100 µM (inactive) in the assay on UO-31 and > 100 µM (inactive) in the assay on XF498.

Turning to `CSCC[C@H](NC(=O)C(CC(C)C)NC(=O)[C@H](Cc1c[nH]cn1)NC(=O)CNC(=O)[C@@H](NC(=O)[C@@H](C)NC(=O)[C@H](Cc1c[nH]c2ccccc12)NC(=O)[C@H](CCC(N)=O)NC(=O)[C@@H](N)CC(N)=O)C(C)(C)SC)C(N)=O` (stereo not given in full) (H-NQW[dA][Pen](Me)GH[ξL]M-NH2), the GI50 in the assay with COLO 205, with DMS-114, with DMS-273, with HCC 2998, with HOP-18 and in the assay with HOP-92 was > 100 µM (inactive) in each case. Besides, the GI50 in the assay with KM-20L2, in the assay on Malme-3M, in the assay with OVCAR-5, in the assay with SF-268, in the assay with SK-OV-3 and in the assay on SNB-19 was > 100 µM (inactive) each time. Moreover, the GI50 in the assay on SNB-78, in the assay on SW-620, with UO-31 and with XF498 was > 100 µM (inactive) in each case.

`COC(=O)C(/C(=N/NC(N)=S)C(=O)Nc1ccccc1[N+](=O)[O-])c1cnc2ccccc2n1` (stereo not given): the GI50 in the assay with COLO 205, in the assay on DMS-114, in the assay on DMS-273, with HCC 2998, in the assay on HOP-18 and with HOP-92 was > 100 µM (inactive) each time. The GI50 in the assay with KM-20L2, with Malme-3M, with OVCAR-5, with SF-268, in the assay with SK-OV-3 and in the assay on SNB-19 was > 100 µM (inactive) each time. Moreover, the GI50 in the assay on SNB-78, with SW-620, in the assay with UO-31 and in the assay on XF498 was > 100 µM (inactive) in each case.

Take `CN(C)CCOc1cc2c(c3ccccc13)-c1ccccc1C2=O`: the GI50 in the assay with COLO 205 is 1.92 µM (inactive); in the assay with DMS-114, 1.09 µM (active); in the assay with DMS-273, 0.531 µM (active); in the assay with HCC 2998, 1.75 µM (inactive); in the assay with HOP-18, 2.07 µM (inactive); in the assay with HOP-92, 0.933 µM (active). For the same compound, the GI50 was 2.1 µM (inactive) in the assay on KM-20L2; 2.19 µM (inactive) in the assay with Malme-3M; 2.47 µM (inactive) with OVCAR-5; 1.45 µM (inactive) in the assay on SF-268; 7.53 µM (inactive) with SK-OV-3; 2.7 µM (inactive) with SNB-19. In addition, the GI50 in the assay with SNB-78 was 6.03 µM (inactive); in the assay with SW-620 it was 1.39 µM (inactive); in the assay on UO-31, 1.5 µM (inactive); with XF498, 1.6 µM (inactive).
